Reference: ChEMBL document CHEMBL1687697 (ACS Med Chem Lett, 2010)
Active and inactive are the calls of the source. The calls are words filed in the database; no cut-off is given here.

What was measured:
[1] = molecular target: Signal transducer and activator of transcription 3 (Homo sapiens) (UniProt P40763); test: Inhibition of STAT3 in human HeLa cells at 5 uM after 24 hrs by luciferase reporter gene assay; type: cell-based
[2] = molecular target: Signal transducer and activator of transcription 3 (Homo sapiens) (UniProt P40763); test: Inhibition of STAT3 phosphorylation at Tyr705 in human DU145 cells after 24 hrs by Western blot analysis; type: cell-based; settings: DU-145
[3] = molecular target: Signal transducer and activator of transcription 3 (Homo sapiens) (UniProt P40763); test: Inhibition of STAT3 phosphorylation Ser727 in human DU145 cells after 24 hrs by Western blot analysis; type: cell-based; settings: DU-145
[4] = molecular target: Signal transducer and activator of transcription 1-alpha/beta (Homo sapiens) (UniProt P42224); test: Inhibition of STAT1 phosphorylation at Tyr701 after 2 hrs by Western blot analysis
Signal transducer and activator of transcription 1-alpha/beta (Homo sapiens), sequence (P42224 whole entry): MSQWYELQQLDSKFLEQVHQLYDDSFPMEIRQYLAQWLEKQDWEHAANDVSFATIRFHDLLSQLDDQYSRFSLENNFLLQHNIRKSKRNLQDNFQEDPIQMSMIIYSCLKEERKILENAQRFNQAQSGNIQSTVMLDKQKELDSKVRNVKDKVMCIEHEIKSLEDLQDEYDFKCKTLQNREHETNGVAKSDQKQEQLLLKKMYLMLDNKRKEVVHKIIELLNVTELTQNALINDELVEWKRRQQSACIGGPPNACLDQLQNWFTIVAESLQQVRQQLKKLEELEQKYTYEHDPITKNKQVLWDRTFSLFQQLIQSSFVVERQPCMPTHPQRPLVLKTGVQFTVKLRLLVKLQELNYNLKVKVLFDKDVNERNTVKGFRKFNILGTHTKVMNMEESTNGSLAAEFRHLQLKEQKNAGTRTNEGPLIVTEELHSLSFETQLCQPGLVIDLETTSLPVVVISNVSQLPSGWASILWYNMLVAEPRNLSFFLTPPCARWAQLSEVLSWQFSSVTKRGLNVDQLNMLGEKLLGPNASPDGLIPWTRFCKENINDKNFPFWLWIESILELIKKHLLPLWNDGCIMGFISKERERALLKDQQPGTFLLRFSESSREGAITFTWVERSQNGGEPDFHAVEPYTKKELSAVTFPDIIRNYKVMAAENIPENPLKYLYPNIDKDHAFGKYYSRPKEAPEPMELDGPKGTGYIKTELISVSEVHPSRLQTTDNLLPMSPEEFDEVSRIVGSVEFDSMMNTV

[5] = molecular target: Signal transducer and activator of transcription 5A (Homo sapiens) (UniProt P42229); test: Inhibition of STAT5 phosphorylation at Tyr694 after 2 hrs by Western blot analysis
Signal transducer and activator of transcription 5A (Homo sapiens), sequence (P42229 whole entry): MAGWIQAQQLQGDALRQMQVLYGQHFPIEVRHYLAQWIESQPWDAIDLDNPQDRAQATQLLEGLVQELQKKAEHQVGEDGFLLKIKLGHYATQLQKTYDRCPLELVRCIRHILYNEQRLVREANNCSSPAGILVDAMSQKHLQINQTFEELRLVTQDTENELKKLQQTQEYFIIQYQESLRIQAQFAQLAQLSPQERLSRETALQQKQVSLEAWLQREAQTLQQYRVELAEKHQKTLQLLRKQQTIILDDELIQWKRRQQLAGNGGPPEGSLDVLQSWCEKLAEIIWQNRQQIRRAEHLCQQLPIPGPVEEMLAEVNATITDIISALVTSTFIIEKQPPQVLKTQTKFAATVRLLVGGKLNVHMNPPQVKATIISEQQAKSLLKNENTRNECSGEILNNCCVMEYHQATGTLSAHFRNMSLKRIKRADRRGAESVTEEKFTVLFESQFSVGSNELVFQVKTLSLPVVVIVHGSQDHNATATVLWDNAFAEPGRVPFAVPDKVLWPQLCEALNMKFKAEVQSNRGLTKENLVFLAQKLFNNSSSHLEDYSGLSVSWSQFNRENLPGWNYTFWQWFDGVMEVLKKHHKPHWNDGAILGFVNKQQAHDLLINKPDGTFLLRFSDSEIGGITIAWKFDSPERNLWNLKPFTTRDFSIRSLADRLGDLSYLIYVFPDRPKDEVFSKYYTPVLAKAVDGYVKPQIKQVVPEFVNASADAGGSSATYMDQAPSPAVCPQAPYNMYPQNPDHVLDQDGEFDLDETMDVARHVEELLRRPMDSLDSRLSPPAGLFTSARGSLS

[6] = tested on: DU-145; test: Effect on JAK1 protein level in human DU145 cells at 0.1 to 2 uM after 2 hrs by Western blot analysis; type: functional, cell-based
[7] = tested on: DU-145; test: Effect on JAK1 protein level in human DU145 cells at 0.1 to 2 uM after 24 hrs by Western blot analysis; type: functional, cell-based
[8] = tested on: DU-145; test: Effect on phosphorylated JAK1 protein level in human DU145 cells at 0.1 to 2 uM after 2 hrs by Western blot analysis; type: functional, cell-based
[9] = tested on: DU-145; test: Effect on phosphorylated JAK1 protein level in human DU145 cells at 0.1 to 2 uM after 24 hrs by Western blot analysis; type: functional, cell-based
[10] = tested on: DU-145; test: Effect on JAK2 protein level in human DU145 cells at 0.1 to 2 uM after 2 hrs by Western blot analysis; type: functional, cell-based
[11] = tested on: DU-145; test: Effect on JAK2 protein level in human DU145 cells at 0.1 to 2 uM after 24 hrs by Western blot analysis; type: functional, cell-based
[12] = tested on: DU-145; test: Effect on phosphorylated-JAK2 protein level in human DU145 cells at 0.1 to 2 uM after 2 hrs by Western blot analysis; type: functional, cell-based
[13] = tested on: DU-145; test: Effect on phosphorylated-JAK2 protein level in human DU145 cells at 0.1 to 2 uM after 24 hrs by Western blot analysis; type: functional, cell-based
[14] = tested on: DU-145; test: Effect on Src protein level in human DU145 cells at 0.1 to 2 uM after 2 hrs by Western blot analysis; type: functional, cell-based
[15] = tested on: DU-145; test: Effect on Src protein level in human DU145 cells at 0.1 to 2 uM after 24 hrs by Western blot analysis; type: functional, cell-based
[16] = tested on: DU-145; test: Effect on Tyr416 phosphorylated-Src protein level in human DU145 cells at 0.1 to 2 uM after 2 hrs by Western blot analysis; type: functional, cell-based
[17] = tested on: DU-145; test: Effect on Tyr416 phosphorylated-Src protein level in human DU145 cells at 0.1 to 2 uM after 24 hrs by Western blot analysis; type: functional, cell-based
[18] = tested on: DU-145; test: Effect on […] phosphorylated-Src protein level in human DU145 cells at 0.1 to 2 uM after 2 hrs by Western blot analysis; type: functional, cell-based
[19] = tested on: DU-145; test: Effect on Tyr527 phosphorylated-Src protein level in human DU145 cells at 0.1 to 2 uM after 24 hrs by Western blot analysis; type: functional, cell-based
[20] = molecular target: Signal transducer and activator of transcription 3 (Homo sapiens) (UniProt P40763); test: Inhibition of STAT3 nuclear translocation in EGF stimulated human DU145 cells at 1 uM administered before 100 ng/ml EGF stimulation measured after 2 hrs by confocal laser microscopy; type: cell-based; settings: DU-145
[21] = molecular target: Signal transducer and activator of transcription 3 (Homo sapiens) (UniProt P40763); test: Inhibition of STAT3 interaction with DNA binding site in human DU145 cells at 05 to 10 uM after 2 hrs by EMSA; type: cell-based; settings: DU-145
[22] = tested on: DU-145; test: Decrease in cyclin D1 protein level in human DU145 cells at 0.1 to 2 uM after 2 hrs by Western blot analysis; type: functional, cell-based
[23] = tested on: DU-145; test: Decrease in c-Myc protein level in human DU145 cells at 0.1 to 2 uM after 2 hrs by Western blot analysis; type: functional, cell-based
[24] = tested on: DU-145; test: Decrease in Bcl-Xl protein level in human DU145 cells at 0.1 to 2 uM after 2 hrs by Western blot analysis; type: functional, cell-based
[25] = tested on: DU-145; test: Downregulation of Mcl-1 protein in human DU145 cells at 0.1 to 2 uM after 2 hrs by Western blot analysis; type: functional, cell-based
[26] = tested on: HeLa; test: Antiproliferative activity against human HeLa cells after 72 hrs by MTT assay; type: functional, cell-based
[27] = tested on: A549; test: Antiproliferative activity against human A549 cells after 72 hrs by MTT assay; type: functional, cell-based; settings: A549, 72 h
[28] = tested on: DU-145; test: Antiproliferative activity against human DU145 cells after 72 hrs by MTT assay; type: functional, cell-based; settings: DU-145, 72 h
[29] = tested on: HT-29; test: Antiproliferative activity against human HT-29 cells after 72 hrs by MTT assay; type: functional, cell-based; settings: HT-29, 72 h
[30] = tested on: A-431; test: Antiproliferative activity against human A431 cells after 72 hrs by MTT assay; type: functional, cell-based; settings: A-431, 72 h
[31] = tested on: PC-3; test: Antiproliferative activity against human PC3 cells after 72 hrs by MTT assay; type: functional, cell-based; settings: PC-3, 72 h
[32] = tested on: DU-145; test: Growth inhibition of human DU145 cells assessed as inhibition of colony formation after 11 to 12 days by crystal violet staining based microscopic analysis; type: functional, cell-based
[33] = tested on: DU-145; test: Cell cycle arrest in human DU145 cells assessed as accumulation in G0/G1 phase at 0.2 uM after 24 hrs by FACS flow cytometry; type: functional
[34] = tested on: DU-145; test: Cell cycle arrest in human DU145 cells assessed as accumulation in S phase at 0.2 uM after 24 hrs by FACS flow cytometry; type: functional
[35] = tested on: DU-145; test: Cell cycle arrest in human DU145 cells assessed as accumulation in G2/M phase at 0.2 uM after 24 hrs by FACS flow cytometry; type: functional
[36] = tested on: DU-145; test: Cell cycle arrest in human DU145 cells assessed as accumulation in G0/G1 phase at 0.5 uM after 24 hrs by FACS flow cytometry; type: functional

Signal transducer and activator of transcription 3 (Homo sapiens), sequence (P40763 whole entry): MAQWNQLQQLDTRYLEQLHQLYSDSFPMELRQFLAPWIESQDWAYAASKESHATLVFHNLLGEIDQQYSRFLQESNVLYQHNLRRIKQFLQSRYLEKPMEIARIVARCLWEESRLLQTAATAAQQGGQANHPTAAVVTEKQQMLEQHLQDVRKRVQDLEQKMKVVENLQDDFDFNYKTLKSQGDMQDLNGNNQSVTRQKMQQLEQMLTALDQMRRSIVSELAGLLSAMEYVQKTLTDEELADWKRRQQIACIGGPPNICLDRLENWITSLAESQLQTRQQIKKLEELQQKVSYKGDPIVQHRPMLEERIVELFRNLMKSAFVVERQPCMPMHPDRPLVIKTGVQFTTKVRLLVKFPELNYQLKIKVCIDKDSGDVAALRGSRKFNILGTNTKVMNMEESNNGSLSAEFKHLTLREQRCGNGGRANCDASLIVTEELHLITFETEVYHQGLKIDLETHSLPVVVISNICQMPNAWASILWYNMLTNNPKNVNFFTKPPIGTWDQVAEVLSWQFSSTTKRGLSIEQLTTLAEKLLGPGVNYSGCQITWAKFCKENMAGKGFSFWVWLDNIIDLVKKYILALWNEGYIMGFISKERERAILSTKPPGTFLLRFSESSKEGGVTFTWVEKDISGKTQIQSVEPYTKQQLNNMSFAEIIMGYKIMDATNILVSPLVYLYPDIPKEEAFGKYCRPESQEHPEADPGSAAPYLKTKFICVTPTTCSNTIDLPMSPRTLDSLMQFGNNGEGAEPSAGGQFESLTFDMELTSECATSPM

Question: For `O=C(Nc1ccc([N+](=O)[O-])cc1Cl)c1cc(Cl)ccc1O` [NICLOSAMIDE], which inhibition [1] is on record?
Answer: Active

Question: What about the inhibition [2] of the same compound?
Answer: Dose-dependent effect

Question: What about the inhibition [3] of the same compound?
Answer: inactive

Question: What about the inhibition [4] of the same compound?
Answer: inactive

Question: And the inhibition [5]?
Answer: inactive

Question: And the Activity [6]?
Answer: inactive

Question: What about the Activity [7] of the same compound?
Answer: inactive

Question: What about the Activity [8] of the same compound?
Answer: inactive

Question: And the Activity [9]?
Answer: inactive

Question: What about the Activity [10] of the same compound?
Answer: inactive

Question: And the Activity [11]?
Answer: inactive

Question: What about the Activity [12] of the same compound?
Answer: inactive

Question: And the Activity [13]?
Answer: inactive

Question: What about the Activity [14] of the same compound?
Answer: inactive

Question: And the Activity [15]?
Answer: inactive

Question: And the Activity [16]?
Answer: inactive

Question: What about the Activity [17] of the same compound?
Answer: inactive

Question: What about the Activity [18] of the same compound?
Answer: inactive

Question: And the Activity [19]?
Answer: inactive

Question: And the inhibition [20]?
Answer: Active

Question: What about the inhibition [21] of the same compound?
Answer: Active

Question: What about the Activity [22] of the same compound?
Answer: Active

Question: And the Activity [23]?
Answer: Active

Question: What about the Activity [24] of the same compound?
Answer: Active

Question: What about the Activity [25] of the same compound?
Answer: Active

Question: What about the IC50 [26] of the same compound?
Answer: 1400 nM

Question: What about the IC50 [27] of the same compound?
Answer: 3000 nM

Question: And the IC50 [28]?
Answer: 700 nM

Question: What about the IC50 [29] of the same compound?
Answer: 7200 nM

Question: And the IC50 [30]?
Answer: 8800 nM

Question: And the IC50 [31]?
Answer: 11700 nM

Question: What about the IC50 [32] of the same compound?
Answer: 700 nM

Question: What about the Activity [33] of the same compound?
Answer: 48.4%

Question: What about the Activity [34] of the same compound?
Answer: 38.4%

Question: And the Activity [35]?
Answer: 13.11%

Question: And the Activity [36]?
Answer: 57.4%
